From publication doi:10.64898/2025.12.10.692519v1 (biorxiv, 2025)
Read-outs that look alike come from different tables or passages of the source.

Tests used:
[1] = target: ALDH1A1 (Homo sapiens, UniProt P00352); assay: NADH fluorescence dehydrogenase assay; format: biochemical
[2] = target: ALDH2 (Homo sapiens, UniProt P05091); assay: NADH fluorescence dehydrogenase assay; format: biochemical
[3] = tested on: TG-LAM-134-P0; assay: cells; set-up: species or system primary AML patient blasts; conditions: 48 h, read-out: IC50 (µM) / AB8939
[4] = tested on: TG-LAM-135-P0; assay: cells; set-up: species or system primary AML patient blasts; conditions: 48 h, read-out: IC50 (µM) / AB8939
[5] = tested on: TG-LAM-136-P0; assay: cells; set-up: species or system primary AML patient blasts; conditions: 48 h, read-out: IC50 (µM) / AB8939
[6] = tested on: TG-LAM-138-P0; assay: cells; set-up: species or system primary AML patient blasts; conditions: 48 h, read-out: IC50 (µM) / AB8939
[7] = tested on: TG-LAM-139-P0; assay: cells; set-up: species or system primary AML patient blasts; conditions: 48 h, read-out: IC50 (µM) / AB8939
[8] = tested on: TG-LAM-140-P0; assay: cells; set-up: species or system primary AML patient blasts; conditions: 48 h, read-out: IC50 (µM) / AB8939
[9] = tested on: TG-LAM-141-P0; assay: cells; set-up: species or system primary AML patient blasts; conditions: 48 h, read-out: IC50 (µM) / AB8939
[10] = tested on: TG-LAM-142-P0; assay: cells; set-up: species or system primary AML patient blasts; conditions: 48 h, read-out: IC50 (µM) / AB8939
[11] = tested on: TG-LAM-143-P0; assay: cells; set-up: species or system primary AML patient blasts; conditions: 48 h, read-out: IC50 (µM) / AB8939
[12] = tested on: TG-LAM-144-P0; assay: cells; set-up: species or system primary AML patient blasts; conditions: 48 h, read-out: IC50 (µM) / AB8939
[13] = tested on: TG-LAM-145-P0; assay: cells; set-up: species or system primary AML patient blasts; conditions: 48 h, read-out: IC50 (µM) / AB8939
[14] = tested on: TG-LAM-75-P3; assay: cells; set-up: species or system primary AML patient blasts; conditions: 48 h, read-out: IC50 (µM) / AB8939
[15] = tested on: TG-LAM-76-P3; assay: cells; set-up: species or system primary AML patient blasts; conditions: 48 h, read-out: IC50 (µM) / AB8939
[16] = tested on: TG-LAM-77-P0; assay: cells; set-up: species or system primary AML patient blasts; conditions: 48 h, read-out: IC50 (µM) / AB8939
[17] = tested on: DU-145; assay: cells; conditions: Homo sapiens, DU-145, 144 h, read-out: AB8939
[18] = tested on: HEP-2; assay: cells; conditions: Homo sapiens, HEp-2, 144 h, read-out: AB8939
[19] = tested on: HGC-27; assay: cells; conditions: Homo sapiens, HGC-27, 144 h, read-out: AB8939
[20] = tested on: HUT-78; assay: cells; conditions: Homo sapiens, HuT78, 144 h, read-out: AB8939
[21] = tested on: Karpas-299; assay: cells; conditions: Homo sapiens, KARPAS-299, 144 h, read-out: AB8939
[22] = tested on: MDA-MB-468; assay: cells; conditions: Homo sapiens, MDA-MB-468, 144 h, read-out: AB8939
[23] = tested on: MESSA; assay: cells; conditions: Homo sapiens, MES-SA, 144 h, read-out: AB8939
[24] = tested on: NALM-6; assay: cells; conditions: Homo sapiens, NALM-6, 144 h, read-out: AB8939
[25] = tested on: PANC-1; assay: cells; conditions: Homo sapiens, PANC-1, 144 h, read-out: AB8939
[26] = tested on: Tov21G; assay: cells; conditions: Homo sapiens, TOV21G, 144 h, read-out: AB8939
[27] = tested on: MESSA; assay: cells; set-up: species or system MES-SA/Mx2; conditions: Homo sapiens, MES-SA, read-out: MES-SA
[28] = tested on: CHRF; assay: cells; set-up: species or system CMK; conditions: 72 h, read-out: AB8939 (IC50 nM)
[29] = tested on: CMK; assay: cells; set-up: species or system CHRF; conditions: Homo sapiens, 72 h, read-out: AB8939 (IC50 nM)

Sequence of ALDH2 (P05091 17-517): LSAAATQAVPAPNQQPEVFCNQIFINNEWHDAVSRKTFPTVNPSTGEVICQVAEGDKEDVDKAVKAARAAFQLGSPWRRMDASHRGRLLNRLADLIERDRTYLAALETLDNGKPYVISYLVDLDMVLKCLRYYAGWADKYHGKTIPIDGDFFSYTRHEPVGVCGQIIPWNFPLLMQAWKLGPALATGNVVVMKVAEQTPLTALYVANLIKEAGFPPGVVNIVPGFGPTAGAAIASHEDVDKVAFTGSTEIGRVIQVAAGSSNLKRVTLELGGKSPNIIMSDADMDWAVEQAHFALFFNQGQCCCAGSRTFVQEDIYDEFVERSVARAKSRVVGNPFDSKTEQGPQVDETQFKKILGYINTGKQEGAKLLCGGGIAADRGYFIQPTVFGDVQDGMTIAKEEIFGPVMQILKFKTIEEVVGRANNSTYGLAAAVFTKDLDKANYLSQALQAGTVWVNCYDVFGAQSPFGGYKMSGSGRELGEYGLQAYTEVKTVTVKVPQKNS
Sequence of ALDH1A1 (P00352 2-501): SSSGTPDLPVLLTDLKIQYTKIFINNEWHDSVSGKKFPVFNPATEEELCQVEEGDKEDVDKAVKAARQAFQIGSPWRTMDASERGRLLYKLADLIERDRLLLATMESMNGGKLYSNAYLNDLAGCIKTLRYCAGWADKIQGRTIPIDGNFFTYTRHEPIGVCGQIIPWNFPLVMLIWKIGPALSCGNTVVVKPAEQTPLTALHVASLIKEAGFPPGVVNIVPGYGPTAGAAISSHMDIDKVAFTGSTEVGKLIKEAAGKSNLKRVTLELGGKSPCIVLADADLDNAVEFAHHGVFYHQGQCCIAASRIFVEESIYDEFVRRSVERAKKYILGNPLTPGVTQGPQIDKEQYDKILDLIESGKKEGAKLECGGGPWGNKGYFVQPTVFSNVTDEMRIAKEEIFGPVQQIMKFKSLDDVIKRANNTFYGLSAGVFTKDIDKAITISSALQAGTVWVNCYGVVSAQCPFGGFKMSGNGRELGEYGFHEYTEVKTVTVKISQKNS

CCOCc1ccc(C)c(Nc2ncc(-c3ccc(N4CCNC4=O)cc3)o2)c1 [AB8939]
IC50 [1]: 610 nM | IC50 [2]: 340 nM | IC50 [3]: 0.08 µM | IC50 [4]: > 5 µM | IC50 [5]: 0.04 µM | IC50 [6]: > 5 µM | IC50 [7]: 0.94 µM | IC50 [8]: 0.06 µM | IC50 [9]: 0.12 µM | IC50 [10]: > 5 µM | IC50 [11]: 0.36 µM | IC50 [12]: 0.38 µM | IC50 [13]: 1.8 µM | IC50 [14]: 0.05 µM | IC50 [15]: 0.013 µM | IC50 [16]: > 5 µM | IC50 [17]: 2 nM | IC50 [18]: 1 nM | IC50 [19]: 1 nM | IC50 [20]: 4 nM | IC50 [21]: 1 nM | IC50 [22]: 14 nM | IC50 [23]: 7 nM | IC50 [24]: 1 nM | IC50 [25]: 1 nM | IC50 [26]: 8 nM | IC50 [27]: 5.7 ± 5 nM | IC50 [28]: 9.7 nM | IC50 [29]: 5.68 nM
